# Test results reported in ChEMBL document CHEMBL4138232, “O2-(2,4-dinitrophenyl)diazeniumdiolates derivatives: Design, synthesis, cytotoxic evaluation and reversing MDR in MCF-7/ADR cells” (Eur J Med Chem, 2018).
# Columns and labels:
# [1] = system: HCT-116; assay: Cytotoxicity against human HCT116 cells overexpressing GST-Pi assessed as inhibition of cell viability at 10 uM after 48 hrs by MTT assay relative to control; type: functional; details: HCT-116, 48 h
# [2] = system: MDA-MB-231; assay: Antiproliferative activity against human MDA-MB-231 cells after 48 hrs by MTT assay relative to control; type: functional, cell-based; details: MDA-MB-231, 48 h
# [3] = system: HCT-116; assay: Antiproliferative activity against human HCT116 cells after 48 hrs by MTT assay relative to control; type: functional, cell-based; details: HCT-116, 48 h
# [4] = system: A549; assay: Antiproliferative activity against human A549 cells after 48 hrs by MTT assay relative to control; type: functional, cell-based; details: A549, 48 h
# [5] = system: U2OS; assay: Antiproliferative activity against human U2OS cells after 48 hrs by MTT assay relative to control; type: functional, cell-based
# [6] = system: MCF-10A; assay: Antiproliferative activity against human MCF10A cells after 48 hrs by MTT assay relative to control; type: cell-based
# [7] = Selectivity ratio of IC50 for human MCF10A cells to IC50 for human MDA-MB-231 cells; type: toxicity; details: MCF10A cells versus MDA-MB-231 cells, read-out: Ratio IC50
# [8] = Selectivity ratio of IC50 for human HCT116 cells to IC50 for human MDA-MB-231 cells; type: functional
# [9] = Selectivity ratio of IC50 for human A549 cells to IC50 for human MDA-MB-231 cells; type: functional
# [10] = Selectivity ratio of IC50 for human U2OS cells to IC50 for human MDA-MB-231 cells; type: functional
# [11] = target: T1, Glutathione S-transferase P (Homo sapiens, UniProt P09211); assay: Prodrug activation in human HCT116 cells assessed as GST-Pi-mediated NO release at 5 uM after 24 hrs by nitrate reductase assay; type: cell-based
# T1 sequence (P09211 whole entry): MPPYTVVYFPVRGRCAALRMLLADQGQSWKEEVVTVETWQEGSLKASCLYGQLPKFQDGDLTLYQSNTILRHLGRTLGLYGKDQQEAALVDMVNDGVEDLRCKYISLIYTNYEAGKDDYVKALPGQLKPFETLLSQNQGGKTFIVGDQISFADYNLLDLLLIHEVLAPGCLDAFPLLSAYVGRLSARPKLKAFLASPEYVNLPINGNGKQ
# [12] = target: T1, Glutathione S-transferase P; assay: Prodrug activation in human HCT116 cells assessed as GST-Pi-mediated NO release at 5 uM after 24 hrs in presence of NO scavenger carboxy-PTIO by nitrate reductase assay; type: cell-based
# [13] = target: T1, Glutathione S-transferase P; assay: Prodrug activation in human HCT116 cells assessed as GST-Pi-mediated NO release at 5 uM after 24 hrs in presence of GST-Pi inhibitor etacrynic acid by nitrate reductase assay; type: cell-based
# [14] = organism: Homo sapiens; assay: Inhibition of MDR in human MCF7/ADR cells assessed as potentiation of adriamycin-induced antiproliferative activity by measuring fold reduction in adriamycin IC50 at 10 uM after 48 hrs by MTT assay; type: cell-based
# [15] = Cytotoxicity against ADR-sensitive human MCF7 cells assessed as inhibition of cell viability at 10 uM after 48 hrs by MTT assay relative to control; type: cell-based; details: read-out: INH
# [16] = system: MCF7; assay: Cytotoxicity against ADR-sensitive human MCF7 cells assessed as inhibition of cell viability after 48 hrs by MTT assay; type: cell-based; details: MCF7, 48 h
IC50 [2] [µM],IC50 [3] [µM],IC50 [4] [µM],IC50 [5] [µM],Drug metabolism [11],Drug metabolism [12],Drug metabolism [13],SMILES,inhibition at 10 µM [1] [%],IC50 [6] [µM],selectivity ratio [7],Ratio IC50 [8],Ratio IC50 [9],Ratio IC50 [10],fold change (FC) [14],"cytotoxicity at 48 h, 10 µM [15] [%]",IC50 [16] [µM]
3.27,7.78,6.94,3.55,,,,CCCCOc1ccc(C2CC(c3cccc(Oc4cc(O/N=[N+](\[O-])N5CCCCC5)c([N+](=O)[O-])cc4[N+](=O)[O-])c3)=NN2C(C)=O)cc1OC (stereo not drawn),72.9,79.7,24.4,2.4,2.1,1.1,,,
,,,,,,,CCCCOc1ccc(/C=C/C(=O)c2cccc(Oc3cc(O/N=[N+](\[O-])N4CCCCC4)c([N+](=O)[O-])cc3[N+](=O)[O-])c2)cc1OC,58.6,,,,,,,,
2.03,4.08,3.15,5.26,,Metabolite_Notdetected,Metabolite_Notdetected,Cc1ccc(/C=C/C(=O)c2cccc(Oc3cc(O/N=[N+](\[O-])N4CCOCC4)c([N+](=O)[O-])cc3[N+](=O)[O-])c2)cc1,61.2,44.7,22,2,1.5,2.6,46.9,21.3,18.8
,,,,,,,COc1ccc(CCN(C)CCCC(C#N)(c2ccc(OC)c(OC)c2)C(C)C)cc1OC (stereo not drawn),,,,,,,29.8,,
,,,,,,,CCCCCOc1ccc(C2CC(c3cccc(Oc4cc(O/N=[N+](\[O-])N5CCOCC5)c([N+](=O)[O-])cc4[N+](=O)[O-])c3)=NN2C(C)=O)cc1OC (stereo not drawn),68.3,,,,,,16.8,21.7,35.8
,,,,,,,CCCCCOc1ccc(C2CC(c3cccc(Oc4cc(O/N=[N+](\[O-])N5CCCCC5)c([N+](=O)[O-])cc4[N+](=O)[O-])c3)=NN2C(C)=O)cc1OC (stereo not drawn),63.7,,,,,,,,
6.15,5.37,8.58,9.78,,,,COc1ccc(/C=C/C(=O)c2cccc(Oc3cc(O/N=[N+](\[O-])N4CCCCC4)c([N+](=O)[O-])cc3[N+](=O)[O-])c2)cc1,69.5,113,18.3,0.9,1.4,1.6,1.53,11.2,71
6.1,4.59,5.99,5.77,Metabolite_Detected,Metabolite_Notdetected,Metabolite_Notdetected,COc1ccc(/C=C/C(=O)c2cccc(Oc3cc(O/N=[N+](\[O-])N4CCOCC4)c([N+](=O)[O-])cc3[N+](=O)[O-])c2)cc1OC,75.6,62.1,10.2,0.7,1,0.9,66.3,18,28.3
1.37,1.43,1.02,6.74,Metabolite_Detected,Metabolite_Notdetected,Metabolite_Notdetected,COc1ccc(C2CC(c3cccc(Oc4cc(O/N=[N+](\[O-])N5CCCCC5)c([N+](=O)[O-])cc4[N+](=O)[O-])c3)=NN2C(C)=O)cc1OC (stereo not drawn),80.9,18.7,13.6,1,0.7,4.9,71.7,17.2,25.2
,,,,,,,CCCCCCOc1ccc(/C=C/C(=O)c2cccc(Oc3cc(O/N=[N+](\[O-])N4CCCCC4)c([N+](=O)[O-])cc3[N+](=O)[O-])c2)cc1OC,16.1,,,,,,,,
,,,,,,,CCCCOc1ccc(/C=C/C(=O)c2cccc(Oc3cc(O/N=[N+](\[O-])N4CCOCC4)c([N+](=O)[O-])cc3[N+](=O)[O-])c2)cc1OC,70.2,,,,,,,,
,,,,,,,CCCCCOc1ccc(/C=C/C(=O)c2cccc(Oc3cc(O/N=[N+](\[O-])N4CCOCC4)c([N+](=O)[O-])cc3[N+](=O)[O-])c2)cc1OC,66.6,,,,,,,,
,,,,,,,CCCCCCOc1ccc(C2CC(c3cccc(Oc4cc(O/N=[N+](\[O-])N5CCCCC5)c([N+](=O)[O-])cc4[N+](=O)[O-])c3)=NN2C(C)=O)cc1OC (stereo not drawn),48,,,,,,,,
1.18,2.92,1.96,5.17,,Metabolite_Notdetected,Metabolite_Notdetected,COc1cc(/C=C/C(=O)c2cccc(Oc3cc(O/N=[N+](\[O-])N4CCOCC4)c([N+](=O)[O-])cc3[N+](=O)[O-])c2)cc(OC)c1OC,77.6,13.8,11.7,2.4,1.7,4.4,72.3,21.5,20.9
,,,,,,,CCCCCOc1ccc(/C=C/C(=O)c2cccc(Oc3cc(O/N=[N+](\[O-])N4CCCCC4)c([N+](=O)[O-])cc3[N+](=O)[O-])c2)cc1OC,33,,,,,,,,
5.34,4.91,5.9,5.19,,,,COc1ccc(/C=C/C(=O)c2cccc(Oc3cc(O/N=[N+](\[O-])N4CCOCC4)c([N+](=O)[O-])cc3[N+](=O)[O-])c2)cc1,68.7,16.6,3.1,0.9,1.1,1,64.2,5.4,29.9
3.42,5.29,4.65,4.65,,,,COc1cc(/C=C/C(=O)c2cccc(Oc3cc(O/N=[N+](\[O-])N4CCCCC4)c([N+](=O)[O-])cc3[N+](=O)[O-])c2)cc(OC)c1OC,63.7,80.8,23.6,1.5,1.4,1.4,42.5,19.2,30.4
,,,,,,,CCCCCCOc1ccc(C2CC(c3cccc(Oc4cc(O/N=[N+](\[O-])N5CCOCC5)c([N+](=O)[O-])cc4[N+](=O)[O-])c3)=NN2C(C)=O)cc1OC (stereo not drawn),66.7,,,,,,,,
,,,,,,,CN(C)c1ccc(/C=C/C(=O)c2cccc(Oc3cc(O/N=[N+](\[O-])N4CCCCC4)c([N+](=O)[O-])cc3[N+](=O)[O-])c2)cc1,65.9,,,,,,,,
,,,,,,,CCCCCCOc1ccc(/C=C/C(=O)c2cccc(Oc3cc(O/N=[N+](\[O-])N4CCOCC4)c([N+](=O)[O-])cc3[N+](=O)[O-])c2)cc1OC,52.4,,,,,,,,
,,,,,,,CN(C)c1ccc(/C=C/C(=O)c2cccc(Oc3cc(O/N=[N+](\[O-])N4CCOCC4)c([N+](=O)[O-])cc3[N+](=O)[O-])c2)cc1,57.1,,,,,,,,
11.1,8.88,9.63,11.4,,,,COc1ccc(/C=C/C(=O)c2cccc(Oc3cc(O/N=[N+](\[O-])N4CCCCC4)c([N+](=O)[O-])cc3[N+](=O)[O-])c2)cc1OC,66.1,95.9,8.6,0.8,0.9,1,10.2,8.24,32.7
4.57,1.3,7.31,9.43,Metabolite_Detected,Metabolite_Notdetected,Metabolite_Notdetected,CC(=O)N1N=C(c2cccc(Oc3cc(O/N=[N+](\[O-])N4CCCCC4)c([N+](=O)[O-])cc3[N+](=O)[O-])c2)CC1c1ccc(C)cc1 (stereo not drawn),75.9,70.9,15.5,0.3,1.6,2.1,18,5.16,22.8
3.74,6.31,5.66,5.22,,,,Cc1ccc(/C=C/C(=O)c2cccc(Oc3cc(O/N=[N+](\[O-])N4CCCCC4)c([N+](=O)[O-])cc3[N+](=O)[O-])c2)cc1,62.2,128,34.2,1.7,1.5,1.4,51.2,14.2,59.1

SMILES,IC50 [2] [µM],IC50 [3] [µM],IC50 [4] [µM],IC50 [5] [µM],Drug metabolism [11],Drug metabolism [12],Drug metabolism [13],inhibition at 10 µM [1] [%],IC50 [6] [µM],selectivity ratio [7],Ratio IC50 [8],Ratio IC50 [9],Ratio IC50 [10],fold change (FC) [14],"cytotoxicity at 48 h, 10 µM [15] [%]",IC50 [16] [µM]
CCOC(=O)N1CCN(/[N+]([O-])=N/Oc2ccc([N+](=O)[O-])cc2[N+](=O)[O-])CC1,5.75,4.86,6.53,6.27,Metabolite_Detected,Metabolite_Notdetected,Metabolite_Notdetected,78,4.91,,,,,,,
